B1: BMP4: bone morphogenic protein; BMP4-based protocol uses 50 ng/ml BMP4 (protein, UniProt P12644 293-408, looked up)
Bone morphogenetic protein 4: SPKHHSQRARKKNKNCRRHSLYVDFSDVGWNDWIVAPPGYQAFYCHGDCPFPLADHLNSTNHAIVQTLVNSVNSSIPKACCVPTELSAISMLYLDEYDKVVLKNYQEMVVEGCGCR

Legend:
Format in all cases: cell-based, human
[1] = system: hES-3-MC aggregates (agitation culture); experiment: DoE multifactorial mesoderm induction: % KDR+ cells by flow cytometry; conditions: BMP4 10 to 50 ng/ml, Activin A 0-80 ng/ml, CHIR exposure 0 to 24 hours, 4 days post initiation of differentiation
Method: (§1) Different doses (and/or duration of exposure) of cytokines and small-molecules with known roles in inducing mesoderm and hematopoietic differentiation were evaluated using the MODDE® software for differentiation of hES-3 MC aggregate cultures initially derived under agitation. The DoE was designed to investigate effects of BMP4 (10-50 ng/ml), Activin A (0 to 80 ng/ml), CHIR (0-15 μM at 0 to 48 hours after start of mesoderm induction). These variables generated 29 culture conditions (FIG. 2A), which were tested for their effects on percent of KDR+ cells (4 days post initiation of differentiation) and the following stage of hematopoietic precursors generation (2 weeks of culture in Blast growth medium (BGM)).
Design of experiments (DoE) using a resolution IV Fractional Factorial Design was performed using the MODDE software (Sartorius Stedim Biotech, Germany) to evaluate initial BMP4, Activin A and CHIR-99021, doses and duration of exposure for their effects on the following response factors: induction of KDR+ cells 4 days post mesoderm induction or total hematopoietic precursor cells generated 2 weeks post differentiation.
Design of experiments (DoE) using a resolution IV Fractional Factorial Design was performed using the MODDE software (Sartorius Stedim Biotech, Germany) to evaluate initial BMP4, Activin A and CHIR-99021, doses and duration of exposure for their effects on the following response factors: induction of KDR+ cells 4 days post mesoderm induction or total hematopoietic precursors generated 2 weeks post differentiation. […] Computed model with R2 scores>0.5 indicate a model of significant fit, Q2 scores>0.1 indicate a significant model while Q2>0.5 indicate a good model for estimation of future prediction precision, model validity score of <0.25 indicate statistically significant model problems and reproducibility (the variation of the replicates compared to overall variability) should be greater than 0.5. […]

[2] = system: hES-3-MC aggregates (agitation culture); experiment: DoE: hematopoietic precursor generation, 14 days in Blast growth medium (BGM); conditions: BMP4 10 to 50 ng/ml, Activin A 0-80 ng/ml, CHIR exposure 0 to 24 hours, 2 weeks in BGM
Method: as §1
Design of experiments (DoE) using a resolution IV Fractional Factorial Design was performed using the MODDE software (Sartorius Stedim Biotech, Germany) to evaluate initial BMP4, Activin A and CHIR-99021, doses and duration of exposure for their effects on the following response factors: induction of KDR+ cells 4 days post mesoderm induction or total hematopoietic precursors generated 2 weeks post differentiation. […] Computed model with R2 scores>0.5 indicate a model of significant fit, Q2 scores>0.1 indicate a significant model while Q2>0.5 indicate a good model for estimation of future prediction precision, model validity score of <0.25 indicate statistically significant model problems and reproducibility (the variation of the replicates compared to overall variability) should be greater than 0.5.
Human pluripotent stem cell-microcarrier (HPSC-MC) aggregates (derived from 7 day continuous agitation conditions), equivalent to 5×10^5 cells, were seeded and differentiated in 24-well ultra-low attachment plates with Stemline II medium using multi-factorial conditions as detailed in FIG. 2A and FIG. 6A, as well as in Table 3. […]
Following 4 days of differentiation, single cells were derived from microcarrier aggregates by treatment with TrypLE. […] Fold-expansion was calculated as total number of cells derived after 2 weeks as compared to initial seeding of 1×10^5 cells.

[3] = system: hES-3 microcarrier aggregates; experiment: BMP4-based vs CHIR-based differentiation: erythroblasts output per hPSC seeded
Text: Six conditions were then chosen for the detailed study; conditions 1, 2 and 4 were based on BMP4/Activin A protocols, while conditions 7, 16 and 18 were CHIR-mediated protocols (Table 1).

[4] = system: O-neg hiPSC line (D5) expanded in agitated microcarrier cultures; experiment: DoE multifactorial analysis of KDR+ cells, O-neg hiPSC; conditions: CHIR exposure for 24 hours, 4 days post differentiation
Text: (B) Plot of KDR levels (%) for respective conditions tested (day 4 post differentiation). Conditions 27, 28 and 29 are triplicates of the same condition tested. […] Act=Activin A; CHI=CHIR-99021 for 24 hr, CH2=CHIR-99021 from 24-48 hr; BMP=BMP4. Computed P-values are indicated below the chart.
These findings were also confirmed using an O-neg hiPSC line (D5) expanded in agitated microcarrier cultures (FIG. 6). […] In summary, from the Design of experiment analysis, it was established that a BMP4 dose of 10 to 50 ng/ml, Activin A dose of 25 to 50 ng/ml and exposure of CHIR for 24 hours at a dose of 6 to 12 μM would be efficient for the generation of KDR+ cells.
Design of experiments (DoE) using a resolution IV Fractional Factorial Design was performed using the MODDE software (Sartorius Stedim Biotech, Germany) to evaluate initial BMP4, Activin A and CHIR-99021, doses and duration of exposure for their effects on the following response factors: induction of KDR+ cells 4 days post mesoderm induction or total hematopoietic precursors generated 2 weeks post differentiation. […]

D9 O-neg hiPSC line = experiment: CHIR dose: hematopoietic/erythroid differentiation of agitated hPSC-MC aggregates; conditions: optimal dose of CHIR-99021, day 4
hES-3 hESC line = experiment: as above; conditions: optimal dose of CHIR-99021, day 4
[5] = hES-3 microcarrier aggregates derived from agitation condition
[6] = hES-3 microcarrier aggregates derived from static condition

Molecule | effect of factor on percent of KDR+ cells (DoE) [1] | effect of factor on hematopoietic precursor generation (DoE) [2] | erythroblasts output per human pluripotent stem cell seeded [3, 5] | erythroblasts output per human pluripotent stem cell seeded [3, 6] | effect of factor on KDR+ cells (DoE) [4] | Mesoderm induction % KDR+ PDGFRα− (D9 O-neg hiPSC line) [%] | Mesoderm induction % KDR+ PDGFRα− (hES-3 hESC line) [%]
Cc1c[nH]c(-c2cnc(NCCNc3ccc(C#N)cn3)nc2-c2ccc(Cl)cc2Cl)n1 [CHIR-99021, 6-[[2-[[4-(2,4-Dichlorophenyl)-5-(5-methyl-1H-imidazol-2-yl)-2-pyrimidinyl]amino]ethyl]amino]-3-pyridinecarbonitrile] | significant increase | significant increase | 8.0±2.1 | 11.5±2.6 | significant factors for increased KDR+ cells | 20.9 | 14.6
B1 | did not significantly alter | did not significantly alter | 1.2±0.7 | 7.7±1.9 |  |  | 

Source: patent US12104173B2, “Method for differentiation of human pluripotent stem cell lines in suspension culture” (AGENCY FOR SCIENCE, TECHNOLOGY AND RESEARCH, priority 2018, dated 2024)
